Reference: US20230365619A1, “CRYSTALLINE SODIUM CHOLESTERYL SULFATE” (Durect Corporation, priority 2020, published 2023)

Test: Dynamic Vapor Sorption/Desorption (DVS)
Type: physicochemical
Settings: FIG. 4

Structure (SMILES): CC(C)CCC[C@@H](C)[C@H]1CC[C@H]2[C@@H]3CC=C4C[C@@H](OS(=O)(=O)[O-])CC[C@]4(C)[C@H]3CC[C@]12C.[Na+] [Form F, sodium cholesteryl sulfate]
- weight change upon desorption (DVS) (desorption 95% to 5% relative humidity): 20.8%
- weight gain on sorption (DVS) (ramping from 5% to 95% relative humidity, 10% RH increments, nitrogen purge): 23.8%
- DVS sorption profile (onset of weight gain) (ramping from 5% to 95% relative humidity): little weight gain until 55% relative humidity
